Measured values published in PubChem BioAssay AID1845208 (Molecular Pharmacology Branch, DTP, NCI, 2023).

System: NCI-H196 SCLC complex tumor spheroid viability
Assay: Anticancer human tumor NCI-H196 cell line growth inhibition;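 note: spheroids exposed to compounds for 7 days before readout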;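 for viability, T/C: 100% = DMSO vehicle control wells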
Conditions: for IC50: curve of first compound; for viability, T/C: stronger effect = lower value
Method in brief: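 Complex tumor spheroids combined malignant cells with endothelial cells and mesenchymal stem cells. DNA-damaging drugs and DNA repair inhibitors were tested alone and in combination, at half-log dilutions down from clinical Cmax (top 10 microM if Cmax unknown), 0.25% DMSO final.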

With `CC(C)n1c(=O)n(C)c2cnc3cc(F)c(-c4ccc(OCCCN5CCCCC5)nc4)cc3c21` + Cn1nnc2c(C(N)=O)ncn2c1=O the IC50 (second compound 1 µM) was > 10 µM, the IC50 (second compound 3.16 µM) was > 10 µM and the IC50 (second compound 10 µM) was > 10 µM. The IC50 (second compound 31.6 µM) was > 10 µM, the IC50 (second compound 100 µM) was > 10 µM and the viability, T/C (second compound 1 µM, first compound 0.0316 µM) was 93.1%. The viability, T/C (second compound 1 µM, first compound 0.1 µM) was 102%, the viability, T/C (second compound 1 µM, first compound 0.316 µM) was 91.8% and the viability, T/C (second compound 1 µM, first compound 1 µM) was 99.7%. For the same compound, the viability, T/C (second compound 1 µM, first compound 3.16 µM) was 101%, the viability, T/C (second compound 1 µM, first compound 10 µM) was 93.6% and the viability, T/C (second compound 3.16 µM, first compound 0.0316 µM) was 94.3%. For the same compound, the viability, T/C (second compound 3.16 µM, first compound 0.1 µM) was 102%, the viability, T/C (second compound 3.16 µM, first compound 0.316 µM) was 101% and the viability, T/C (second compound 3.16 µM, first compound 1 µM) was 119%. It also gave a viability, T/C (second compound 3.16 µM, first compound 3.16 µM) of 100%, a viability, T/C (second compound 3.16 µM, first compound 10 µM) of 94.2% and a viability, T/C (second compound 10 µM, first compound 0.0316 µM) of 90.8%. It also gave a viability, T/C (second compound 10 µM, first compound 0.1 µM) of 97.7%, a viability, T/C (second compound 10 µM, first compound 0.316 µM) of 98.4% and a viability, T/C (second compound 10 µM, first compound 1 µM) of 106%. For the same compound, the viability, T/C (second compound 10 µM, first compound 3.16 µM) was 106%, the viability, T/C (second compound 10 µM, first compound 10 µM) was 95% and the viability, T/C (second compound 31.6 µM, first compound 0.0316 µM) was 103%. It also gave a viability, T/C (second compound 31.6 µM, first compound 0.1 µM) of 103%, a viability, T/C (second compound 31.6 µM, first compound 0.316 µM) of 101% and a viability, T/C (second compound 31.6 µM, first compound 1 µM) of 104%. For the same compound, the viability, T/C (second compound 31.6 µM, first compound 3.16 µM) was 116%, the viability, T/C (second compound 31.6 µM, first compound 10 µM) was 90.8% and the viability, T/C (second compound 100 µM, first compound 0.0316 µM) was 103%. The viability, T/C (second compound 100 µM, first compound 0.1 µM) was 96.2%, the viability, T/C (second compound 100 µM, first compound 0.316 µM) was 98.3% and the viability, T/C (second compound 100 µM, first compound 1 µM) was 100%. The viability, T/C (second compound 100 µM, first compound 3.16 µM) was 95.8% and the viability, T/C (second compound 100 µM, first compound 10 µM) was 82.1%.
